Data: patent US8883965B2, “Compounds” (Ferring B.V., priority 2006, dated 2014)
Positions of bridges follow the written chain, without caps; N, C: chain ends. Non-standard residues stand in square brackets, D forms with d. Residues, ends and D or L forms follow the SMILES beside them. Ala(cPent) = N[C@@H](CC1CCCC1)C(=O)O; Orn(iPr) = CC(C)NCCC[C@H](N)C(=O)O; Cha = N[C@@H](CC1CCCCC1)C(=O)O; Orn = NCCC[C@H](N)C(=O)O; Dab = NCC[C@H](N)C(=O)O; Ac4c = NC1(C(=O)O)CCC1

What follows are molecules tested against T1, hV1a receptor (Homo sapiens, UniProt P37288) (assay: In vitro receptor assay: transcriptional reporter (luciferase) assay of agonist activity in HEK-293 cells transiently transfected with hV1a receptor). Settings: hV1a receptor in HEK-293 cells, 5 hours exposure, geometric mean of at least three independent experiments, nanomol/L, read-out: EC50 (median effective concentration).
T1 construct: expressed in transfected cells; host or cells: HEK-293
Assay type: cell-based
Procedure: Agonist activity of compounds on the hV1a receptor was determined in a transcriptional reporter assay by transiently transfecting a hV1a receptor expression DNA into HEK-293 cells in concert with a reporter DNA containing intracellular calcium responsive promoter elements regulating expression of firefly luciferase. See Boss, V., Talpade, D. J., Murphy, T. J. J. Biol. Chem. 1996, May 3; 271(18), 10429-10432 for further guidance on this assay.
The EC50 value given is the geometric mean expressed in nanomol/L (nM).

T1 sequence (P37288 whole entry): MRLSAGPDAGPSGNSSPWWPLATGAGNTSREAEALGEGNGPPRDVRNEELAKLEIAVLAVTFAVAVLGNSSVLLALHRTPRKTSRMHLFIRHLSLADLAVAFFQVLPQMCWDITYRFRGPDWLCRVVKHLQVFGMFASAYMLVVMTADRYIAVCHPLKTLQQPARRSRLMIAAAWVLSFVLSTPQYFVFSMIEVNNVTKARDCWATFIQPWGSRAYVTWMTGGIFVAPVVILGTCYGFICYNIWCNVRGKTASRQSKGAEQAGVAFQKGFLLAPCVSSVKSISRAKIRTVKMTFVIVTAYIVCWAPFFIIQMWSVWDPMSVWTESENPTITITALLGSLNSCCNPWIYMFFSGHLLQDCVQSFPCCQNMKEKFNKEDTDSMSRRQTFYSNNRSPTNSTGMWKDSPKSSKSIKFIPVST

| Compound | EC50 [nM] |
| --- | --- |
| CC[C@H](C)[C@@H]1NC(=O)[C@H](CC2CCCCC2)NC(=O)[C@@H](N)CSSC[C@@H](C(=O)N2CCC[C@H]2C(=O)N[C@@H](CCN)C(=O)NCC(N)=O)NC(=O)[C@H](CC(N)=O)NC(=O)[C@H](CCC(N)=O)NC1=O [compound 1] (H-C[Cha]IQNCP[Dab]G-NH2; disulfide 1-6; N-terminus and C-terminus assumed) | 0.27 |
| CC[C@H](C)[C@@H]1NC(=O)[C@H](CC2CCCC2)NC(=O)[C@@H](N)CSSC[C@@H](C(=O)N2CCC[C@H]2C(=O)N[C@@H](CCN)C(=O)NCC(N)=O)NC(=O)[C@H](CC(N)=O)NC(=O)[C@H](CCC(N)=O)NC1=O [compound 2] (H-C[Ala(cPent)]IQNCP[Dab]G-NH2; disulfide 1-6) | 0.8 |
| CC[C@H](C)[C@@H]1NC(=O)C2(CCC2)NC(=O)[C@@H](N)CSSC[C@@H](C(=O)N2CCC[C@H]2C(=O)N[C@@H](CCN)C(=O)NCC(N)=O)NC(=O)[C@H](CC(N)=O)NC(=O)[C@H](CCC(N)=O)NC1=O [compound 3, [AcBuc^2, Dbu^8]VT] (H-C[Ac4c]IQNCP[Dab]G-NH2; disulfide 1-6) | 0.94 |
| CC[C@H](C)[C@@H]1NC(=O)[C@H](CC2CCCCC2)NC(=O)[C@@H](N)CSSC[C@@H](C(=O)N2CCC[C@H]2C(=O)N[C@@H](CCCNC(C)C)C(=O)NCC(N)=O)NC(=O)[C@H](CC(N)=O)NC(=O)[C@H](CC(N)=O)NC1=O [compound 4, [Cha^2, Asn^4, Orn(i-Pr)^6]VT] (H-C[Cha]INNCP[Orn(iPr)]G-NH2; disulfide 1-6) | 0.75 |
| NCCCC[C@H](NC(=O)[C@@H]1CCCN1C(=O)[C@@H]1CSSC[C@H](NC(=O)CNC(=O)CNC(=O)CN)C(=O)N[C@@H](Cc2ccc(O)cc2)C(=O)N[C@@H](Cc2ccccc2)C(=O)N[C@@H](CCC(N)=O)C(=O)N[C@@H](CC(N)=O)C(=O)N1)C(=O)NCC(N)=O [terlipressin, reference compound] (H-GGGCYFQNCPKG-NH2; disulfide 4-9) | 82.1 |

Continued, values first:

| EC50 [nM] | Compound |
| --- | --- |
| 17.8 | CC[C@H](C)[C@@H]1NC(=O)[C@H](CC2CCCC2)NC(=O)[C@@H](N)CSSC[C@@H](C(=O)N2CCC[C@H]2C(=O)N[C@@H](CCN)C(=O)NCC(N)=O)NC(=O)[C@H](CC(N)=O)NC(=O)[C@H](CC(N)=O)NC1=O [compound 10] (H-C[Ala(cPent)]INNCP[Dab]G-NH2; disulfide 1-6) |
| 9.93 | CC[C@H](C)[C@@H]1NC(=O)[C@H](CC2CCCCC2)NC(=O)[C@@H](N)CSSC[C@@H](C(=O)N2CCC[C@H]2C(=O)N[C@@H](CCCN)C(=O)NCC(N)=O)NC(=O)[C@H](CC(N)=O)NC(=O)[C@H](CC(N)=O)NC1=O [compound 11] (H-C[Cha]INNCP[Orn]G-NH2; disulfide 1-6) |
